ChEMBL document CHEMBL1132546, “Na(+)-glucose cotransporter (SGLT) inhibitors as antidiabetic agents. 4. Synthesis and pharmacological properties of 4'-dehydroxyphlorizin derivatives substituted on the B ring” (1999)

Experiment: Compound was tested for urinary glucose excretion (mg/24 h) at 100 mg/Kg dose of compound given perorally
Assay type: functional, Rattus norvegicus, Urine
Parameters: unit: mg/24 h

| Compound | Urinary glucose excretion |
| --- | --- |
| CC(=O)OC[C@H]1O[C@@H](Oc2cc(C)cc(OC(C)=O)c2C(=O)CCc2ccc3occc3c2)[C@H](O)[C@@H](O)[C@@H]1O | 183 |
| O=C(CCc1ccc2occc2c1)c1c(O)cccc1O[C@@H]1O[C@H](CO)[C@@H](O)[C@H](O)[C@H]1O | 321 |
| CC(=O)Oc1cc(C)cc(O[C@@H]2O[C@H](CO)[C@@H](O)[C@H](OC(C)=O)[C@H]2OC(C)=O)c1C(=O)CCc1ccc2occc2c1 | 1450 |
| O=C(CCc1ccc2occc2c1)c1c(O)c(Cl)cc(Cl)c1O[C@@H]1O[C@H](CO)[C@@H](O)[C@H](O)[C@H]1O | 5 |
| C=CCc1ccc(O[C@@H]2O[C@H](CO)[C@@H](O)[C@H](O)[C@H]2O)c(C(=O)CCc2ccc3occc3c2)c1O | 5 |
| Cc1ccc(O)c(C(=O)CCc2ccc3occc3c2)c1O[C@@H]1O[C@H](CO)[C@@H](O)[C@H](O)[C@H]1O | 5 |
| CC(C)c1cc(O)c(C(=O)CCc2ccc3occc3c2)c(O[C@@H]2O[C@H](CO)[C@@H](O)[C@H](O)[C@H]2O)c1 | 128 |
| COc1cc(O)c(C(=O)CCc2ccc3occc3c2)c(O[C@@H]2O[C@H](CO)[C@@H](O)[C@H](O)[C@H]2O)c1 | 38 |
| CC(=O)O[C@H]1[C@H](Oc2cc(C)cc(O)c2C(=O)CCc2ccc3occc3c2)O[C@H](CO)[C@@H](O)[C@@H]1O | 482 |
| COCC(=O)OC[C@H]1O[C@@H](Oc2cc(C)cc(O)c2C(=O)CCc2ccc3occc3c2)[C@H](O)[C@@H](O)[C@@H]1O | 721 |
| CC(=O)O[C@H]1[C@H](Oc2cc(C)cc(O)c2C(=O)CCc2ccc3occc3c2)O[C@H](CO)[C@@H](O)[C@@H]1OC(C)=O | 349 |
| CC(=O)OC[C@H]1O[C@@H](Oc2cc(C)cc(O)c2C(=O)CCc2ccc3occc3c2)[C@H](O)[C@@H](O)[C@@H]1O | 540 |
| CCc1ccc(O[C@@H]2O[C@H](CO)[C@@H](O)[C@H](O)[C@H]2O)c(C(=O)CCc2ccc3occc3c2)c1O | 1 |
| COC1(C)OC[C@H]2O[C@@H](Oc3cc(C)cc(O)c3C(=O)CCc3ccc4occc4c3)[C@H](O)[C@@H](O)[C@@H]2O1 (some centres undefined) | 729 |
| COC(=O)O[C@H]1[C@H](O)[C@@H](O)[C@H](Oc2cc(C)cc(O)c2C(=O)CCc2ccc3occc3c2)O[C@@H]1CO | 1407 |
| COCCOC(=O)OC[C@H]1O[C@@H](Oc2cc(C)cc(O)c2C(=O)CCc2ccc3occc3c2)[C@H](O)[C@@H](O)[C@@H]1O | 817 |
| Cc1cc(O)c(C(=O)CCc2ccc3occc3c2)c(O[C@@H]2O[C@H](COC(=O)OC(C)C)[C@@H](O)[C@H](O)[C@H]2O)c1 | 980 |
| O=C(CCc1ccc2occc2c1)c1c(O)cc(Cl)cc1O[C@@H]1O[C@H](CO)[C@@H](O)[C@H](O)[C@H]1O | 8 |
| O=C(CCc1ccc2occc2c1)c1c(O)cc(O)cc1O[C@@H]1O[C@H](CO)[C@@H](O)[C@H](O)[C@H]1O | 38 |
| CCOC(=O)OC[C@H]1O[C@@H](Oc2cc(C)cc(O)c2C(=O)CCc2ccc3occc3c2)[C@H](O)[C@@H](O)[C@@H]1O | 805 |
| CCCc1cc(O)c(C(=O)CCc2ccc3occc3c2)c(O[C@@H]2O[C@H](CO)[C@@H](O)[C@H](O)[C@H]2O)c1 | 27 |
| CCc1cc(O)c(C(=O)CCc2ccc3occc3c2)c(O[C@@H]2O[C@H](CO)[C@@H](O)[C@H](O)[C@H]2O)c1 | 864 |
| Cc1cc(O)c(C(=O)CCc2ccc3occc3c2)c(O[C@@H]2O[C@H](CO)[C@@H](O)[C@H](O)[C@H]2O)c1 | 935 |
| COC(=O)OC[C@H]1O[C@@H](Oc2cc(C)cc(O)c2C(=O)CCc2ccc3occc3c2)[C@H](O)[C@@H](O)[C@@H]1O | 1192 |
